Read-outs that look alike come from different tables or passages of the source.
Key:
Format in all cases: cell-based
[1] = system: pancreatic cancer cells (BxPC3); assay: In vitro potency (CellTiter-Glo, 96 h), BxPC3; settings: Homo sapiens, BXPC-3, 96 h
Method in brief: (§1)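 Log-phase cells were seeded for 24 h in RPMI 1640 with 20% FBS, then exposed to serially diluted antibody-drug conjugates or free camptothecin drug for 4 days at 37 °C. Growth inhibition was read by luminescence, and IC50 values were reported in ng/mL and nmol/L.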

[2] = system: anaplastic large cell lymphoma cells (Karpas299); assay: In vitro potency (CellTiter-Glo, 96 h), Karpas299; settings: Homo sapiens, KARPAS-299, 96 h
Method in brief: (§2)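 Growth inhibition after 96 h at 37 °C with test article, measured by luminescence; cells in RPMI 1640, 20% FBS.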

[3] = system: B-lymphocyte cancer cells (SU-DHL4); assay: In vitro potency (CellTiter-Glo, 96 h), SU-DHL-4; settings: Homo sapiens, SU-DHL-4, 96 h
Method in brief: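 IC50 (ng/mL or nmol/L) derived from CellTiter-Glo luminescence after 96 h exposure at 37 °C to serial dilutions of ADC or CPT free drug. Log-phase cells had been plated 24 h beforehand in RPMI 1640 containing 20% FBS.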

[4] = system: anaplastic large cell lymphoma cells (DEL); assay: In vitro potency (CellTiter-Glo, 96 h), DEL
Method in brief: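 Cells in log-phase growth seeded 24 h in RPMI 1640 with 20% FBS, then exposed to serially diluted ADC or CPT free drug for 96 h at 37 °C. Growth inhibition read by CellTiter-Glo luminescence; IC50 reported in ng/mL or nmol/L.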

Ls174T cells = assay: In vitro potency (CellTiter-Glo, 96 h), Ls174T; settings: Homo sapiens, LS174T
Method in brief: as §1

melanoma cells (A2058) = assay: In vitro potency (CellTiter-Glo, 96 h), A2058; settings: Homo sapiens, A2058, 96 h
Method in brief: (§3)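 RPMI 1640/20% FBS cultures, log phase, plated 24 h → ADC titration → 4 d, 37 °C → luminescence → IC50, ng/mL.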

[5] = system: renal carcinoma cells (786-O); assay: In vitro potency (CellTiter-Glo, 96 h), 786-O; settings: Homo sapiens, 786-0, 96 h
Method in brief: as §2

[6] = system: acute myeloid leukemia cells (MOLM-13); assay: In vitro potency (CellTiter-Glo, 96 h), MOLM-13; settings: Homo sapiens, MOLM-13, 96 h
Method in brief: as §1

[7] = system: breast cancer cells (MDA-MB-231); assay: In vitro potency (CellTiter-Glo, 96 h), MDA-MB-231; settings: Homo sapiens, MDA-MB-231, 96 h
Method in brief: as §2

[8] = system: Hodgkin's lymphoma cells (L540cy); assay: In vitro potency (CellTiter-Glo, 96 h), L540cy
Method in brief: as §2

[9] = system: non-small-cell lung cancer cells (Calu1); assay: In vitro potency (CellTiter-Glo, 96 h), Calu1; settings: Homo sapiens, Calu-1, 96 h
Method in brief: as §3

[10] = system: anaplastic large cell lymphoma cells (DELBVR); assay: In vitro potency (CellTiter-Glo, 96 h), DELBVR
Method in brief: as §2

[11] = CPT free drugs, Table 24, CellTiter-Glo after 96 h exposure, read-out: IC50 (nmol/L) BxPC3
[12] = CPT free drugs, Table 24, CellTiter-Glo after 96 h exposure, read-out: IC50 (nmol/L) Karpas299
[13] = CPT free drugs, Table 24, CellTiter-Glo after 96 h exposure, read-out: IC50 (nmol/L) SU-DHL-4
[14] = CPT free drugs, Table 24, CellTiter-Glo after 96 h exposure, read-out: IC50 (nmol/L) DEL
[15] = CPT free drugs, Table 24, CellTiter-Glo after 96 h exposure, read-out: IC50 (nmol/L) Ls174T
[16] = CPT free drugs, Table 24, CellTiter-Glo after 96 h exposure, read-out: IC50 (nmol/L) A2058
[17] = CPT free drugs, Table 24, CellTiter-Glo after 96 h exposure, read-out: IC50 (nmol/L) 786-O
[18] = CPT free drugs, Table 24, CellTiter-Glo after 96 h exposure, read-out: IC50 (nmol/L) MOLM-13
[19] = CPT free drugs, Table 24, CellTiter-Glo after 96 h exposure, read-out: IC50 (nmol/L) MDAMB231
[20] = CPT free drugs, Table 24, CellTiter-Glo after 96 h exposure, read-out: IC50 (nmol/L) L540cy
[21] = CPT free drugs, Table 24, CellTiter-Glo after 96 h exposure, read-out: IC50 (nmol/L) Calu1
[22] = CPT free drugs, Table 24, CellTiter-Glo after 96 h exposure, read-out: IC50 (nmol/L) DELBVR

Row | Structure (SMILES) | IC50 [1, 11] | IC50 [2, 12] | IC50 [3, 13] | IC50 [4, 14] | IC50 (Ls174T cells; [15]) | IC50 (melanoma cells (A2058); [16]) | IC50 [5, 17] | IC50 [6, 18] | IC50 [7, 19] | IC50 [8, 20] | IC50 [9, 21] | IC50 [10, 22] | also measured
1 | CC[C@@]1(O)C(=O)OCc2c1cc1n(c2=O)Cc2c-1nc1cc3c(cc1c2CNC1CCN(C(=O)OC(C)(C)C)CC1)OCO3 [Compound 7q] | – | – | – | – | – | – | – | – | – | – | – | – | IC50 ([1]; camptothecin free drug, 96 h, read-out: BxPC3 IC50): 28 nmol/L; IC50 ([2]; camptothecin free drug, 96 h, read-out: Karpas299 IC50): 26 nmol/L; IC50 ([3]; camptothecin free drug, 96 h, read-out: SU-DHL-4 IC50): 17 nmol/L; IC50 ([4]; camptothecin free drug, read-out: DEL IC50): 6 nmol/L; IC50 (Ls174T cells; camptothecin free drug, 96 h, read-out: Ls174T IC50): 24 nmol/L; IC50 (melanoma cells (A2058); camptothecin free drug, 96 h, read-out: A2058 IC50): 7 nmol/L; IC50 ([5]; camptothecin free drug, 96 h, read-out: 786-O IC50): 26 nmol/L; IC50 ([6]; camptothecin free drug, 96 h, read-out: MOLM-13 IC50): 33 nmol/L; IC50 ([7]; camptothecin free drug, 96 h, read-out: MDAMB231 IC50): 131 nmol/L; IC50 ([8]; camptothecin free drug, read-out: L540cy IC50): 15 nmol/L; IC50 ([9]; camptothecin free drug, 96 h, read-out: Calu1 IC50): 1000 nmol/L; IC50 ([10]; camptothecin free drug, read-out: DELBVR IC50): 13 nmol/L
2 | CC[C@@]1(O)C(=O)OCc2c1cc1n(c2=O)Cc2c-1nc1cc(OC)c(OC)cc1c2CN [Compound 2ao, (19S)-10-(aminomethyl)-19-ethyl-19-hydroxy-6,7-dimethoxy-17-oxa-3,13-diazapentacyclo[11.8.0.02,11.04,9.015,20]henicosa-1(21),2,4(9),5,7,10,15 (20)-heptaene-14,18-dione] | > 1000 nmol/L | > 1000 nmol/L | > 1000 nmol/L | 937 nmol/L | > 1000 nmol/L | > 1000 nmol/L | > 1000 nmol/L | > 1000 nmol/L | > 1000 nmol/L | > 1000 nmol/L | > 1000 nmol/L | > 1000 nmol/L | –
3 | CC[C@@]1(O)C(=O)OCc2c1cc1n(c2=O)Cc2c-1nc1ccc(Br)cc1c2CN [Compound 2e] | 30.7 nmol/L | 10.7 nmol/L | 5.7 nmol/L | 1 nmol/L | 4.5 nmol/L | 5 nmol/L | 4.2 nmol/L | 56 nmol/L | 7.1 nmol/L | 4.3 nmol/L | 55 nmol/L | 4 nmol/L | –
4 | CC[C@@]1(O)C(=O)OCc2c1cc1n(c2=O)Cc2c-1nc1cc(F)c(O)c3c1c2CNC3 [Compound 3c] | > 1000 nmol/L | > 1000 nmol/L | > 1000 nmol/L | > 1000 nmol/L | > 1000 nmol/L | > 1000 nmol/L | > 1000 nmol/L | > 1000 nmol/L | > 1000 nmol/L | > 1000 nmol/L | > 1000 nmol/L | > 1000 nmol/L | –
5 | CC[C@@]1(O)C(=O)OCc2c1cc1n(c2=O)Cc2c-1nc1cccc(F)c1c2CN [Compound 2p] | 62 nmol/L | 27 nmol/L | 14 nmol/L | 4 nmol/L | 15.1 nmol/L | 11 nmol/L | 14 nmol/L | 24 nmol/L | 19 nmol/L | 7 nmol/L | 160 nmol/L | 8 nmol/L | –
6 | CC[C@@]1(O)C(=O)OCc2c1cc1n(c2=O)Cc2c-1nc1cc(F)c(C)cc1c2CN [Compound 2h] | 8 nmol/L | 3 nmol/L | 2 nmol/L | 0.5 nmol/L | 1.7 nmol/L | 1 nmol/L | 3 nmol/L | 14 nmol/L | 2 nmol/L | 3 nmol/L | 16 nmol/L | 0.8 nmol/L | –
7 | CC[C@@]1(O)C(=O)OCc2c1cc1n(c2=O)Cc2c-1nc1cc(F)c(F)cc1c2CN [Compound 2l] | 35 nmol/L | 8 nmol/L | 4 nmol/L | 3.3 nmol/L | 8.1 nmol/L | 4 nmol/L | 15 nmol/L | 16 nmol/L | 8 nmol/L | 4 nmol/L | 42 nmol/L | 2.1 nmol/L | –
8 | CC[C@@]1(O)C(=O)OCc2c1cc1n(c2=O)Cc2c-1nc1ccc(Cl)cc1c2CN [Compound 2c] | 19 nmol/L | 8 nmol/L | 3 nmol/L | 1.7 nmol/L | 3.9 nmol/L | 3 nmol/L | 6 nmol/L | 21 nmol/L | 6 nmol/L | 5 nmol/L | 45 nmol/L | 3.3 nmol/L | –
9 | CC[C@@]1(O)C(=O)OCc2c1cc1n(c2=O)Cc2c-1nc1cc(F)c(C)c(F)c1c2CN [Compound 2j] | – | – | – | – | – | – | – | – | – | – | – | – | IC50 ([1]; read-out: IC50 (nmol/L) BxPC3, CPT free drugs, Table 24, CellTiter-Glo after 96 h exposure): 9 nmol/L; IC50 ([2]; read-out: IC50 (nmol/L) Karpas299, CPT free drugs, Table 24, CellTiter-Glo after 96 h exposure): 2 nmol/L; IC50 ([3]; read-out: IC50 (nmol/L) SU-DHL-4, CPT free drugs, Table 24, CellTiter-Glo after 96 h exposure): 2 nmol/L; IC50 ([4]; read-out: IC50 (nmol/L) DEL, CPT free drugs, Table 24, CellTiter-Glo after 96 h exposure): 1 nmol/L; IC50 (Ls174T cells; 96 h, read-out: IC50 (nmol/L) Ls174T, CPT free drugs, Table 24, CellTiter-Glo after 96 h exposure): 3 nmol/L; IC50 (melanoma cells (A2058); read-out: IC50 (nmol/L) A2058): 2 nmol/L; IC50 ([5]; read-out: IC50 (nmol/L) 786-O, CPT free drugs, Table 24, CellTiter-Glo after 96 h exposure): 3 nmol/L; IC50 ([6]; read-out: IC50 (nmol/L) MOLM-13, CPT free drugs, Table 24, CellTiter-Glo after 96 h exposure): 9 nmol/L; IC50 ([7]; read-out: IC50 (nmol/L) MDAMB231, CPT free drugs, Table 24, CellTiter-Glo after 96 h exposure): 2 nmol/L; IC50 ([8]; read-out: IC50 (nmol/L) L540cy, CPT free drugs, Table 24, CellTiter-Glo after 96 h exposure): 1 nmol/L; IC50 ([9]; read-out: IC50 (nmol/L) Calu1): 23 nmol/L; IC50 ([10]; read-out: IC50 (nmol/L) DELBVR, CPT free drugs, Table 24, CellTiter-Glo after 96 h exposure): 1 nmol/L
